Literature values in US10617778B2, “Self-sterilizing package and methods for making and using the same” (priority 2014, dated 2020).

System: humans

[O][Cl+][O-] [chlorine dioxide]
vapor concentration at which the gas can be toxic: greater than 0.3 ppm
